In PubChem BioAssay AID493003 (Sanford-Burnham Center for Chemical Genomics, 2010):
pIC50: −log10 of the molar value. The source made the active and inactive calls. No rule for the calls is given here.

Test system: S. cerevisiae tim10-1 mutant growth, luminescence
Assay: growth inhibitors of tim10-1 mutant yeast, dose response, luminescence, S. cerevisiae, uHTS hits (AID 493003);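 also: yeast growth measured after about 22 hours at 25 °C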

## N/C(=N\OC(=O)CC(c1ccccc1)c1ccccc1)c1cccnc1
  pIC50: 4.38

## COc1ccc(C(CCNC(C)c2ccccc2)c2ccc(F)cc2)cc1 (configuration not stated)
  pIC50: 4.69

## Nc1nc(Nc2cccc(C(F)(F)F)c2)nc(C(F)(F)F)n1
  pIC50: 4.63

## Cc1ccc(-c2csc3ncnc(Nc4ccc(N5CCOCC5)cc4)c23)cc1
  pIC50: 4.27

## CC(=O)SC1CC(=O)N(c2ccc(C(C)(C)C)cc2)C1=O (configuration not stated)
  pIC50: 4.41

## COc1cc(OC)c(C(=O)O/N=C(\N)c2cccc(C)c2)cc1OC
  pIC50: 4.75

## O=C(/C=C/c1ccccc1)CC(O)(c1ccccc1)C(F)(F)C(F)F (configuration not stated)
  pIC50: 4.79

## CC1CCCCN1S(=O)(=O)c1ccc(NC(=O)c2ccco2)cc1 (configuration not stated)
  pIC50: 4.64

## Cc1nc2c(-c3ccccc3)cnn2c(N)c1-c1ccccc1
  pIC50: 4.62

## Cc1nnc(SC2CC(=O)N(c3ccccc3)C2=O)s1 (configuration not stated)
  pIC50: 4.51

## CCOC(=O)c1ccc(N=c2ssnc2Cl)cc1
  pIC50: 4.98

## CCOc1ccccc1C(=O)Nc1cc(OC)ccc1OC
  pIC50: 4.45

## N/C(CCS(=O)(=O)c1ccc(Cl)cc1)=N\OC(=O)c1ccccc1C(F)(F)F
  pIC50: 4.43

## COc1ccc(/C(N)=N/OC(=O)c2ccc3c(c2)OCO3)cc1
  pIC50: 4.83

## CC(C)(C)C1CCc2nc(NC(=O)Cc3cn4ccsc4n3)sc2C1 (configuration not stated)
  pIC50: 4.64

## C/C(=N\OC(=O)NC(C)C)c1sc(-c2ccc(Cl)cc2)nc1C
  pIC50: 4.47

## O=C1CC(SCc2nc3ccccc3[nH]2)C(=O)N1c1ccc(F)c(Cl)c1 (configuration not stated)
  pIC50: 4.49

## Cc1cc(C)n(CC(O)Cn2c3ccc(Br)cc3c3cc(Br)ccc32)c(=O)n1 (configuration not stated)
  pIC50: 4.71

## CN(C)CCCN(C(=O)c1ccc(S(=O)(=O)N2CCc3ccccc3C2)cc1)c1nc2c(F)cc(F)cc2s1
  pIC50: 4.45

## Clc1cccc(Cl)c1/C=C/c1ccn[nH]1
  pIC50: 4.64

## c1ccc(-c2csc3ncnc(-n4cnc5ccccc54)c23)cc1
  pIC50: 4.80

## Cc1cc(N/N=C/c2ccc(Cl)cc2)nc(NCc2ccccc2)n1
  pIC50: 4.44

## Cn1c(NCCCO)nc2c(c1=O)C1(CCCCC1)Cc1ccccc1-2
  pIC50: 4.91

## CCOC(=O)c1c(-c2ccccc2)oc2cc(Br)c(O)cc12
  pIC50: 4.69

## CCCCN(CC)CCCNC(=O)c1cc2cc3ccc(OC)cc3nc2o1
  pIC50: 4.76

## NC(=NCCCCCCN=C(N)/N=C(\N)Nc1ccc(Cl)cc1)/N=C(\N)Nc1ccc(Cl)cc1
  pIC50: 4.92

## CCOC(=O)/C=C/C(=O)Nc1cccc([N+](=O)[O-])c1
  pIC50: 5.15

## CCCCc1ccc(NC(=S)Nc2ccc(Nc3ccc(OC)cc3)cc2)cc1
  pIC50: 4.89

## CCCCCCSc1ccc([C@H]2N[C@@](C)(C(=O)OC)[C@H]3C(=O)N(C)C(=O)[C@@H]23)cc1
  pIC50: 4.27

## O=C(/C=C\c1ccc(-c2ccccc2)o1)c1ccccc1
  pIC50: 5.26

## O=c1c2ccccc2[se]n1-c1ccccc1
  pIC50: 5.00

## CC(C)C(=O)Nc1ccc(-c2nc3ccccc3c(=O)o2)cc1
  pIC50: 4.44

## CC/C(=N\NC(=S)Nc1cc(C)ccc1C)c1ccc(OC(F)F)cc1
  pIC50: 4.46

## Cc1cccc(C2=NNC(=O)C(c3ccc(Cl)cc3)C2)c1 (configuration not stated)
  pIC50: 4.47

## CN(C1CCCCC1)S(=O)(=O)c1ccc(NC(=O)c2ccc(Br)o2)cc1
  pIC50: 4.51

## N/C(=N\OC(=O)CCC1CCCC1)c1cccc([N+](=O)[O-])c1
  pIC50: 5.19

## O=S(=O)(NCCNc1ncc(C(F)(F)F)cc1Cl)C(F)(F)F
  pIC50: 4.58

## Nc1ccc2oc(-c3cccc(Br)c3)nc2c1
  pIC50: 4.55

## Cc1cc(Nc2cccc(F)c2)nc(-c2ccccc2O)n1
  pIC50: 4.19

## Cc1nc2ccc(Nc3nc4cc(S(=O)(=O)N5CCOCC5)ccc4o3)cc2s1
  pIC50: 4.71

## Cc1nc2ccccn2c1P(=S)(N1CCCCC1)N1CCCCC1
  pIC50: 4.40

## Cc1ccc(S(=O)(=O)Nc2ccc(N=Nc3ccc(O)cc3)cc2)cc1
  pIC50: 4.68

## CC(C)(C)c1cc(C(=O)N/N=C/c2ccc(F)cc2)n(-c2ccccc2)n1
  pIC50: 4.44

## O=C(C1CCN(C2CC(=O)N(c3cccc(Cl)c3)C2=O)CC1)N1CCCC1 (configuration not stated)
  pIC50: 4.74

## Cc1ccc2nc(C)c(C(=O)N/N=C/c3cccc([N+](=O)[O-])c3)cc2c1
  pIC50: 4.59

## NC(=O)C1CCN(C2CC(=O)N(c3ccc(F)c(Cl)c3)C2=O)CC1 (configuration not stated)
  pIC50: 4.67

## COc1ccc(S(=O)(=O)Nc2ccc(O)c(Sc3nc4ccccc4s3)c2)cc1
  pIC50: 4.47

## COc1cccc(/C=N/n2c(C3CCCCC3)n[nH]c2=S)c1O
  pIC50: 4.49

## Cc1ccc(C(=O)N2CCN(c3ccc(NC(=O)c4ccc(Br)o4)cc3)CC2)cc1
  pIC50: 4.49

## Cc1ccc(/C(N)=N/OC(=O)N2CCOCC2)cc1
  pIC50: 4.61

## Cc1cccc(/C=N/n2c(COc3ccccc3)n[nH]c2=S)c1
  pIC50: 4.44

## Cc1ccccc1SCC(=O)Nc1cc(C(F)(F)F)ccc1N1CCOCC1
  pIC50: 4.55

## CCOC(=O)c1c(-c2ccccc2)csc1NC(=S)NC
  pIC50: 4.35

## COc1ccc(C(=O)O/N=C(\N)c2ccc(Br)cc2)cc1
  pIC50: 4.92

## O=C(Nc1ncc2c(n1)-c1ccccc1CC2)c1cccc(Cl)c1
  pIC50: 4.28

## Cc1ccccc1NC(=S)N(Cc1ccccn1)Cc1ccccc1Cl
  pIC50: 4.68

## O=C1NCCc2c1[nH]c1c(Cl)ccc(Cl)c21
  pIC50: 4.32

## N/C(=N\OC(=O)c1ccc(Cl)cc1)c1ccc(Cl)cc1
  pIC50: 5.48

## CCN(CC)CCN(C(=O)c1ccc2c(c1)CCCC2)c1nc2ccc(OC)cc2s1
  pIC50: 4.66

## C=CCN(C(=O)c1cccc(S(=O)(=O)N2CCN(C)CC2)c1)c1nc(-c2ccccc2)cs1
  pIC50: 4.33

## OC(COc1ccc2ccccc2c1Br)Cn1cnc(-c2ccccc2)c1 (configuration not stated)
  pIC50: 4.74

## Cc1cccc(Nc2ncccc2C(=O)NCc2cccs2)c1C
  pIC50: 4.27

## CCN1C(=O)C(CC(=O)Nc2ccc(OC)cc2)N(CCc2ccc(OC)cc2)C1=S (configuration not stated)
  pIC50: 4.49

## CC1CCN(C(=O)CCc2ccc(Oc3cc([N+](=O)[O-])cc([N+](=O)[O-])c3)cc2)CC1
  pIC50: 4.30

## Fc1cccc(-c2cc3nc4c(c(NCc5ccco5)n3n2)CCCC4)c1
  pIC50: 4.47

## CN1CCN(c2ccccc2NC(=O)c2ccc(-c3ccc(Cl)c(Cl)c3)o2)CC1
  pIC50: 4.82

## Cc1ccc(F)c(NC(=O)c2c(-c3ccccc3)noc2C)c1
  pIC50: 4.23

## O=c1c2[nH]c3ccc(F)cc3c2nc2n1CCS2
  pIC50: 4.56

## Cc1cccc(C(=O)O/N=C(/c2ccccc2)c2ccncc2)c1
  pIC50: 4.58

## Cn1c(NCc2c(O)ccc3ccccc23)nc2ccccc21
  IC50: > 100 µM (inactive)

## NS(=O)(=O)c1ccc(NC(=S)Nc2ccc(Br)c(Cl)c2)cc1
  pIC50: 4.50

## O=C(C1CCCN(S(=O)(=O)c2cccc3nsnc23)C1)N1CCc2ccccc21 (configuration not stated)
  pIC50: 4.09

## O=C(NC(=S)NNC(=O)c1ccccc1[N+](=O)[O-])c1ccc(Br)cc1
  pIC50: 5.00

## O=C(Nc1cccc(C(F)(F)F)c1)c1cccnc1NCCc1ccccc1
  pIC50: 4.33

## O=C(Nc1cccc(C(=O)N2CCN(c3cccc(Cl)c3)CC2)c1)c1ccccc1
  pIC50: 4.45

## C/C(CC(=O)Nc1ccc(N(C)C)cc1)=N\NC(=O)c1ccccn1
  pIC50: 4.26

## S=C(NCCSCc1ccc(Cl)cc1)Nc1ccccc1
  pIC50: 4.71

## N/C(=N\OC(=O)c1cccc(Cn2cc(C(F)(F)F)ccc2=O)c1)c1ccccc1
  pIC50: 4.63

## COc1ccc(C(=O)Nc2ccc(S(=O)(=O)N3CCCCC3)cc2)cc1OC
  pIC50: 4.55

## O=C(NC(=S)Nc1ccccc1N1CCCC1)c1ccc([N+](=O)[O-])cc1
  pIC50: 4.85

## COc1ccc(C(=O)O/N=C(\N)c2ccccc2Cl)cc1OC
  pIC50: 4.82

## CCC(Oc1ccccc1)C(=O)Nc1ncc([N+](=O)[O-])s1 (configuration not stated)
  pIC50: 4.74
